Like-named read-outs stand apart in the source and are kept apart here.
Experiments:
[1] = Stability test in aqueous citrate buffer solution (reversed-phase HPLC quantification); type: physicochemical; conditions: for percentages of compounds remaining in the test solutions after storage: 3 weeks, 20 mM citrate buffer solution (pH 6.0), 0.1% (weight/volume)
Protocol: 3H2P phosphate monoester (1) (not according to the invention) and 3H2P phosphate bisester (2) (according to the invention) in the form of free acid were dissolved in a 20 mM citrate buffer solution (pH 6.0) to a concentration of 0.1% (weight/volume). The test solutions were stored at 4°C, 25°C, or 40°C for 3 weeks. 3H2P phosphate monoester (1) or 3H2P phosphate bisester (2) contained in the stored test solutions were quantitatively analyzed via reversed-phase HPLC (Inertsil® ODS-3, 5 µm, 4.6 × 250 mm, GL Sciences). For comparative example, the similar test was carried out in the manner described above with the use of 3H2P. […]

[2] = test system: tyrosinase; experiment: Test of tyrosinase activity inhibition (L-DOPA substrate, absorbance at 475 nm); type: biochemical; conditions: Fig. 2; for tyrosinase inhibitory activity compared with 3H2P: at the same concentration as 3H2P; for tyrosinase inhibitory activity: free acid, concentration of 0.1 to 0.5 mg/ml
Protocol: A solution of 6 mM L-DOPA, an aqueous solution of the test compound adjusted to a given concentration, and a phosphate buffer (pH 6.8) were mixed at a ratio of 2:2:1 by volume. The resulting substrate mixture (1.0 ml) was mixed with 0.2 ml of a solution of 0.017 mg/ml tyrosinase (Sigma), and the enzyme reaction was initiated at 37°C. The absorbance of the enzyme reaction solution was measured at 475 nm 0 and 3 minutes after the initiation of the reaction. The test group subjected to the enzyme reaction in the same manner described above, except that the test compound was not included, was designate as the blank test group. On the basis of the measured absorbance, the inhibition rate of tyrosinase activity was determined using the formula shown below. […] Inhibition rate of tyrosinase activity (%) = (1−(The difference in the absorbance of the test compound in the enzyme reaction solution between 0 minutes and 3 minutes after the initiation of the reaction)/(The difference in the absorbance of the blank in the enzyme reaction solution between 0 min and 3 min)) × 100 [formula]

[3] = test system: Mouse-derived B16 melanoma cells 4A5; experiment: Test for melanin production inhibition; type: cell-based; conditions: for melanin amount relative to the melanin amount of the control group: concentration of 5 µg/ml, control group = 100, day 6 of culture; for melanin production inhibitory activity: concentrations of 1, 5, and 10 µg/ml, compared with 3H2P and arbutin, Fig. 1; for melanin production inhibitory activity, free acid compared with triethylamine salt: free acid (Fig. 1A) vs triethylamine salt (Fig. 1B)
Protocol: Mouse-derived B16 melanoma cells 4A5 (RIKEN) were seeded on a 6-well plate with the use of DMEM medium containing 10% FBS to a cell density of 5.0 × 10^4 cells/well (day 0 of culture), and culture was conducted at 37°C in the presence of 5% CO2 for 24 hours. On the following day, the cell-seeded medium was exchanged with a medium supplemented with the test compound at a given concentration (day 1 of culture). The medium was exchanged with a fresh medium every other day from day 2 and thereafter. The cells were recovered via treatment with trypsin on day 6 of culture, and melanin was extracted using an aqueous solution of 1 N sodium hydroxide. The absorbance of the melanin extract was measured at 405 nm, and the melanin amount was determined using a calibration curve prepared with the use of a melanin standard sample. In addition, the protein amount of the cells recovered in the manner described below was determined using the DC Protein Assay Kit (BIO-RAD) and employed as the cell count index. […] In the figure, the melanin amount and the cell count of test groups to which the test compounds had been added are represented relative to the measured melanin amount and cell count of the control group to which no test compound had been added (concentration: 0), which is designated as 100.

stability in weak-acidic to neutral water, compared with non-phosphorylated 3H2P [1] | Compound | percentages of compounds remaining in the test solutions after storage ([1]; 4°C) [%] | percentages of compounds remaining in the test solutions after storage ([1]; 25°C) [%] | percentages of compounds remaining in the test solutions after storage ([1]; 40°C) [%] | stability in weak-acidic to neutral water, compared with non-phosphorylated 3H2P ([1]; summary in words of Table 1) | tyrosinase inhibitory activity compared with 3H2P [2] | tyrosinase inhibitory activity [2] | melanin amount relative to the melanin amount of the control group [3] | melanin production inhibitory activity [3] | melanin production inhibitory activity, free acid compared with triethylamine salt [3]
– | O=c1occcc1OP(=O)(O)Oc1cccoc1=O [3H2P phosphate bisester (2), 3-hydroxy-2-pyrone phosphate bisester] | 100 | 100 | 99.3 | remarkably improved stability | lower than the tyrosinase inhibitory activity of 3H2P | low tyrosinase inhibitory activity | approximately 50% | slightly lower than that of 3H2P but equivalent to that of arbutin | approximately equivalent melanin production inhibitory activity
remarkably improved stability | O=c1occcc1OP(=O)(O)O [3H2P phosphate monoester (1), 3-hydroxy-2-pyrone phosphate monoester] | – | – | – | – | lower than the tyrosinase inhibitory activity of 3H2P | low tyrosinase inhibitory activity | approximately 50% | slightly lower than that of 3H2P but equivalent to that of arbutin | approximately equivalent melanin production inhibitory activity
– | O=c1occcc1O [Compound 3H2P, 3-hydroxy-2-pyrone, reference compound] | 98.4 | 87.3 | 53.2 | – | – | – | – | – | –

From patent EP2990408B1, “NOVEL WHITENING AGENT” (Nichirei Biosciences Inc., priority 2013, dated 2014)
